The values that follow come from BindingDB's records for PubMed 22084396 (Genentech, Inc and Exelixis).

The term pIC50 denotes the IC50 on a negative log10 scale, so that one unit is a factor of ten. A low value points to a large IC50.

The target in assay [1] is 3-phosphoinositide-dependent protein kinase 1, PDPK1 (Homo sapiens) (UniProt O15530). Put plainly: Inhibition of PDK1 (unknown origin).
Assay [2] concerns the target Serine/threonine-protein kinase 4, STK4/MST1 (Homo sapiens) (UniProt Q13043). Put plainly: Inhibition of MST1 (unknown origin).

Structures are written as SMILES. pIC50: −log10 of the molar value. Bounds are passed on as bounds.

Chain of Serine/threonine-protein kinase 4, STK4/MST1 (Homo sapiens) (Q13043 whole entry, looked up): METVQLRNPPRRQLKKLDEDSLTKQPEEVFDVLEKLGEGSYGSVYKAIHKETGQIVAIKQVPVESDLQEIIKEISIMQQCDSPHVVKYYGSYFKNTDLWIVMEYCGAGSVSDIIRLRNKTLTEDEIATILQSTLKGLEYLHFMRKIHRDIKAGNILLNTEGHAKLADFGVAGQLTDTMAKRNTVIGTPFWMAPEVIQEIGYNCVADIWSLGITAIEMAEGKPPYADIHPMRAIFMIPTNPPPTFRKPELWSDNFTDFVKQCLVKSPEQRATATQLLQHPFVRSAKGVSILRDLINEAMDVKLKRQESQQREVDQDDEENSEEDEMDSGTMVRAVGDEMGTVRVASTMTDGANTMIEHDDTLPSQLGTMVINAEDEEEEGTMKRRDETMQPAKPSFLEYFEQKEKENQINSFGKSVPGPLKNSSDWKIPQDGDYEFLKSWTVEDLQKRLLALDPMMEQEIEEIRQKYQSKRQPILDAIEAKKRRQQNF
Chain of 3-phosphoinositide-dependent protein kinase 1, PDPK1 (Homo sapiens) (O15530 whole entry, looked up): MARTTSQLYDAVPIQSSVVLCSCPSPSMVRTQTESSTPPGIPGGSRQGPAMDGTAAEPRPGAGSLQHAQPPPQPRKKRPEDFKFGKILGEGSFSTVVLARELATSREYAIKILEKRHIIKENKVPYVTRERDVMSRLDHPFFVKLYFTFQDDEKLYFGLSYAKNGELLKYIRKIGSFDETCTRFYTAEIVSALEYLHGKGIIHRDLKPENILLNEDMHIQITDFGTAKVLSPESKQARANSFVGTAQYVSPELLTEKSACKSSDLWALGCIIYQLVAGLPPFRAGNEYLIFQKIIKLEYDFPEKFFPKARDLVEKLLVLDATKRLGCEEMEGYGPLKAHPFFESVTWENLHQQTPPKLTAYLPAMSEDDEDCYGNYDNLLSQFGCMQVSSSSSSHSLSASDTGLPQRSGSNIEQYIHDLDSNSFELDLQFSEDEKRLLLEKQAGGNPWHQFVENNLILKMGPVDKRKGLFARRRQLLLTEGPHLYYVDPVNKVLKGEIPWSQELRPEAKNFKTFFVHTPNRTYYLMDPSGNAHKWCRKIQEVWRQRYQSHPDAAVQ

Turning to `O=C(c1ccc(F)c(F)c1Nc1ccc(I)cc1F)N1CC(O)([C@@H]2CCCCN2)C1`, the pIC50 in assay [1] and in assay [2] was below 5.00 in each case.
